Measurements taken from patent US9790178B2, “Pyrrolidinyl urea, thiourea, guanidine and cyanoguanidine compounds as TrkA kinase inhibitors” (Array BioPharma Inc., priority 2012, dated 2017).

Key:
Experiment in all cases: KinaseProfiler off-target kinase profiling
Assay type in all cases: biochemical
Abl2 = target: T1, Abl2 (Homo sapiens, UniProt P42684); details: 10 μM, ATP near Km
T1 construct: purchased Millipore, Inc. (KinaseProfiler service)
Procedure: (§1) A representative compound of the invention (Example 20) was tested for off-target kinase activity at a concentration of 10 μM by Millipore, Inc. in their KinaseProfiler™ service against all the kinases available in their full kinase panel. The compound was run in duplicate at a concentration of ATP near the Km for each individual kinase according to Millipore's specifications. The results are shown in Table B. Data are reported as percent of control (POC) and are the average of the two replicates.

CAMK1d = target: T2, CAMK1d (Homo sapiens, UniProt Q8IU85); details: 10 μM, ATP near Km
T2 construct: purchased Millipore, Inc. (KinaseProfiler service)
Procedure: as §1

CAMK2g = target: T3, CAMK2g (Homo sapiens, UniProt Q13555); details: 10 μM, ATP near Km
T3 construct: purchased Millipore, Inc. (KinaseProfiler service)
Procedure: as §1

CDK2/cyclinE = target: T4, CDK2/cyclinE (Homo sapiens, UniProt P24941); details: 10 μM, ATP near Km
T4 construct: purchased Millipore, Inc. (KinaseProfiler service)
Procedure: as §1

CK1delta = target: T5, CK1delta (Homo sapiens, UniProt P48730); details: 10 μM, ATP near Km
T5 construct: purchased Millipore, Inc. (KinaseProfiler service)
Procedure: as §1

EGFR = target: T6, EGFR (Homo sapiens, UniProt P00533); details: 10 μM, ATP near Km
T6 construct: purchased Millipore, Inc. (KinaseProfiler service)
Procedure: as §1

EphA2 = target: T7, EphA2 (Homo sapiens, UniProt P29317); details: 10 μM, ATP near Km
T7 construct: purchased Millipore, Inc. (KinaseProfiler service)
Procedure: as §1

EphA3 = target: T8, EphA3 (Homo sapiens, UniProt P29320); details: 10 μM, ATP near Km
T8 construct: purchased Millipore, Inc. (KinaseProfiler service)
Procedure: as §1

EphA5 = target: T9, EphA5 (Homo sapiens, UniProt P54756); details: 10 μM, ATP near Km
T9 construct: purchased Millipore, Inc. (KinaseProfiler service)
Procedure: as §1

EphA7 = target: T10, EphA7 (Homo sapiens, UniProt Q15375); details: 10 μM, ATP near Km
T10 construct: purchased Millipore, Inc. (KinaseProfiler service)
Procedure: as §1

EphB1 = target: T11, EphB1 (Homo sapiens, UniProt P54762); details: 10 μM, ATP near Km
T11 construct: purchased Millipore, Inc. (KinaseProfiler service)
Procedure: as §1

FAK = target: T12, FAK (Homo sapiens, UniProt Q05397); details: 10 μM, ATP near Km
T12 construct: purchased Millipore, Inc. (KinaseProfiler service)
Procedure: as §1

GRK5 = target: T13, GRK5 (Homo sapiens, UniProt P34947); details: 10 μM, ATP near Km
T13 construct: purchased Millipore, Inc. (KinaseProfiler service)
Procedure: as §1

HIPK3 = target: T14, HIPK3 (Homo sapiens, UniProt Q9H422); details: 10 μM, ATP near Km
T14 construct: purchased Millipore, Inc. (KinaseProfiler service)
Procedure: as §1

IGF-1R Activated = target: T15, IGF-1R Activated (Homo sapiens, UniProt P08069); details: 10 μM, ATP near Km
T15 construct: purchased Millipore, Inc. (KinaseProfiler service)
Procedure: as §1

IRAK4 = target: T16, IRAK4 (Homo sapiens, UniProt Q9NWZ3); details: 10 μM, ATP near Km
T16 construct: purchased Millipore, Inc. (KinaseProfiler service)
Procedure: as §1

JAK2 = target: T17, JAK2 (Homo sapiens, UniProt O60674); details: 10 μM, ATP near Km
T17 construct: purchased Millipore, Inc. (KinaseProfiler service)
Procedure: as §1

Lck = target: T18, Lck (Homo sapiens, UniProt P06239); details: 10 μM, ATP near Km
T18 construct: purchased Millipore, Inc. (KinaseProfiler service)
Procedure: as §1

MAP3K5 = target: T19, MAP3K5 (Homo sapiens, UniProt Q99683); details: 10 μM, ATP near Km
T19 construct: purchased Millipore, Inc. (KinaseProfiler service)
Procedure: as §1

MAP4K2 = target: T20, MAP4K2 (Homo sapiens, UniProt Q12851); details: 10 μM, ATP near Km
T20 construct: purchased Millipore, Inc. (KinaseProfiler service)
Procedure: as §1

MAPKAP-K3 = target: T21, MAPKAP-K3 (Homo sapiens, UniProt Q16644); details: 10 μM, ATP near Km
T21 construct: purchased Millipore, Inc. (KinaseProfiler service)
Procedure: as §1

MKK7beta = target: T22, MKK7beta (Homo sapiens, UniProt O14733); details: 10 μM, ATP near Km, POC verified as a false positive (footnote)
T22 construct: purchased Millipore, Inc. (KinaseProfiler service)
Procedure: as §1

MSSK1 = target: T23, MSSK1 (Homo sapiens, UniProt Q9UPE1); details: 10 μM, ATP near Km
T23 construct: purchased Millipore, Inc. (KinaseProfiler service)
Procedure: as §1

MYLK = target: T24, MYLK (Homo sapiens, UniProt Q15746); details: 10 μM, ATP near Km
T24 construct: purchased Millipore, Inc. (KinaseProfiler service)
Procedure: as §1

PAK4 = target: T25, PAK4 (Homo sapiens, UniProt O96013); details: 10 μM, ATP near Km
T25 construct: purchased Millipore, Inc. (KinaseProfiler service)
Procedure: as §1

PKAC-alpha = target: T26, PKAC-alpha (Homo sapiens, UniProt P17612); details: 10 μM, ATP near Km
T26 construct: purchased Millipore, Inc. (KinaseProfiler service)
Procedure: as §1

PKCbetaI = target: T27, PKCbetaI (Homo sapiens, UniProt P05771); details: 10 μM, ATP near Km
T27 construct: purchased Millipore, Inc. (KinaseProfiler service)
Procedure: as §1

PKCgamma = target: T28, PKCgamma (Homo sapiens, UniProt P05129); details: 10 μM, ATP near Km
T28 construct: purchased Millipore, Inc. (KinaseProfiler service)
Procedure: as §1

PRKG1alpha = target: T29, PRKG1alpha (Homo sapiens, UniProt Q13976); details: 10 μM, ATP near Km
T29 construct: purchased Millipore (KinaseProfiler service)
Procedure: as §1

PTK6 = target: T30, PTK6 (Homo sapiens, UniProt Q13882); details: 10 μM, ATP near Km
T30 construct: purchased Millipore (KinaseProfiler service)
Procedure: as §1

Pim-3 = target: T31, Pim-3 (Homo sapiens, UniProt Q86V86); details: 10 μM, ATP near Km
T31 construct: purchased Millipore, Inc. (KinaseProfiler service)
Procedure: as §1

Rsk1 = target: T32, Rsk1 (Homo sapiens, UniProt Q15418); details: 10 μM, ATP near Km
T32 construct: purchased Millipore (KinaseProfiler service)
Procedure: as §1

SRPK1 = target: T33, SRPK1 (Homo sapiens, UniProt Q96SB4); details: 10 μM, ATP near Km
T33 construct: purchased Millipore, Inc. (KinaseProfiler service)
Procedure: as §1

SRPK2 = target: T34, SRPK2 (Homo sapiens, UniProt P78362); details: 10 μM, ATP near Km
T34 construct: purchased Millipore, Inc. (KinaseProfiler service)
Procedure: as §1

TAK1 = target: T35, TAK1 (Homo sapiens, UniProt O43318); details: 10 μM, ATP near Km
T35 construct: purchased Millipore, Inc. (KinaseProfiler service)
Procedure: as §1

Txk = target: T36, Txk (Homo sapiens, UniProt P42681); details: 10 μM, ATP near Km
T36 construct: purchased Millipore, Inc. (KinaseProfiler service)
Procedure: as §1

ULK2 = target: T37, ULK2 (Homo sapiens, UniProt Q8IYT8); details: 10 μM, ATP near Km
T37 construct: purchased Millipore, Inc. (KinaseProfiler service)
Procedure: as §1

WNK2 = target: T38, WNK2 (Homo sapiens, UniProt Q9Y3S1); details: 10 μM, ATP near Km
T38 construct: purchased Millipore, Inc. (KinaseProfiler service)
Procedure: as §1

WNK3 = target: T39, WNK3 (Homo sapiens, UniProt Q9BYP7); details: 10 μM, ATP near Km
T39 construct: purchased Millipore, Inc. (KinaseProfiler service)
Procedure: as §1

c-RAF = details: 10 μM, ATP near Km
Procedure: as §1

p38delta = target: T40, p38delta (Homo sapiens, UniProt O15264); details: 10 μM, ATP near Km
T40 construct: purchased Millipore, Inc. (KinaseProfiler service)
Procedure: as §1

T19 sequence (Q99683 whole entry): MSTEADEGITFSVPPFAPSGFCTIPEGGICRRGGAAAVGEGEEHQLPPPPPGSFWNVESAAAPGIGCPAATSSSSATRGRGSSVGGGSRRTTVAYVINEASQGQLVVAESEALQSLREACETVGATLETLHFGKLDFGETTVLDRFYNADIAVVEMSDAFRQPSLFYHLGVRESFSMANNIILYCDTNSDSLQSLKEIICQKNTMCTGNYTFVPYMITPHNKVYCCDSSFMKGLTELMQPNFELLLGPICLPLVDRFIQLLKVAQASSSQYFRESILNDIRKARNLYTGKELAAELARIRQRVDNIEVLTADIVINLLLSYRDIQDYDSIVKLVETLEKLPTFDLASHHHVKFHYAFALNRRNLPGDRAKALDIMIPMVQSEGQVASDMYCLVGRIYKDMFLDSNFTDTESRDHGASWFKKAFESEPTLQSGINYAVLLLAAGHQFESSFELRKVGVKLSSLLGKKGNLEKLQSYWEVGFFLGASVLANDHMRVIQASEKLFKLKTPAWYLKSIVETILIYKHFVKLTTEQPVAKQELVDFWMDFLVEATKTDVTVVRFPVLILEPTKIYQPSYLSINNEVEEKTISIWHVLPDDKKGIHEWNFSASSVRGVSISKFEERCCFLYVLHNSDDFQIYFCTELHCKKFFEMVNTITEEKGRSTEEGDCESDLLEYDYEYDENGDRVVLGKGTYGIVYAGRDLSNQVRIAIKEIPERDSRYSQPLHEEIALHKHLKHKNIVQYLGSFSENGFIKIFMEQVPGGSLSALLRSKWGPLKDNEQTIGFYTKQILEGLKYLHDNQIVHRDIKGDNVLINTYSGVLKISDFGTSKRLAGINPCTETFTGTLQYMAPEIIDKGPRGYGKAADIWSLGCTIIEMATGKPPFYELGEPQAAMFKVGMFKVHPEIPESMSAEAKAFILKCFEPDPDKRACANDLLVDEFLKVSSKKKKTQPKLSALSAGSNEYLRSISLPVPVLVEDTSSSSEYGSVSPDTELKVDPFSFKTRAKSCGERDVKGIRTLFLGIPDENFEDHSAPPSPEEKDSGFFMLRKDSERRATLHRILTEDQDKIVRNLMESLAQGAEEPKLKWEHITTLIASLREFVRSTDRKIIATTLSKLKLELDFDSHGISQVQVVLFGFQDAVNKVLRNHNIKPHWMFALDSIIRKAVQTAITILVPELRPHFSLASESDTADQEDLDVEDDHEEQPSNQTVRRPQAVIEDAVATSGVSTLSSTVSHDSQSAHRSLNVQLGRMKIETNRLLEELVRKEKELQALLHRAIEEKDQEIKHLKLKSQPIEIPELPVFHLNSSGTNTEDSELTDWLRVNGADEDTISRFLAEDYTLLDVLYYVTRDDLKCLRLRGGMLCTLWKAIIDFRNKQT
T16 sequence (Q9NWZ3 whole entry): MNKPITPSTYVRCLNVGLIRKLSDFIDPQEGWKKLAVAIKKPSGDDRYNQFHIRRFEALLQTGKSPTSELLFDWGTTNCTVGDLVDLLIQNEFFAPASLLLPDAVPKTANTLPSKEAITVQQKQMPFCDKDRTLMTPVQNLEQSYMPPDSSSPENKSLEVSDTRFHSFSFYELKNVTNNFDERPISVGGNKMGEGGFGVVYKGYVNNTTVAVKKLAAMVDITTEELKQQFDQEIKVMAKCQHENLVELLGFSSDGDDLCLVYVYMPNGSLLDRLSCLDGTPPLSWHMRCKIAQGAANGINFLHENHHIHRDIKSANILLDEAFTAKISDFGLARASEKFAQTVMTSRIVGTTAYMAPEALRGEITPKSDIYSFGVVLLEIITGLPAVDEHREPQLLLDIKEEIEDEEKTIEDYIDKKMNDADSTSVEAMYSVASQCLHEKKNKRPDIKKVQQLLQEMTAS
T15 sequence (P08069 959-1367 limits assumed): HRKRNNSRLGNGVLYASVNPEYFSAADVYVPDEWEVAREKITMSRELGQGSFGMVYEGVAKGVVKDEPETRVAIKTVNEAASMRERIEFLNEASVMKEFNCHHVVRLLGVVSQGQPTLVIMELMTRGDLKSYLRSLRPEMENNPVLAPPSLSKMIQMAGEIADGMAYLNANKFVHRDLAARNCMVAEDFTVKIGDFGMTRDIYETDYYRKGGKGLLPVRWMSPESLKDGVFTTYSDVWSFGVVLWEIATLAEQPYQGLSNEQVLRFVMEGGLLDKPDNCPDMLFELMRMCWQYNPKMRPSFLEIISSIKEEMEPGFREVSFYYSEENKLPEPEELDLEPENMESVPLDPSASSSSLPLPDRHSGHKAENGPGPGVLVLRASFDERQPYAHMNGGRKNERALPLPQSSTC
T8 sequence (P29320 21-983): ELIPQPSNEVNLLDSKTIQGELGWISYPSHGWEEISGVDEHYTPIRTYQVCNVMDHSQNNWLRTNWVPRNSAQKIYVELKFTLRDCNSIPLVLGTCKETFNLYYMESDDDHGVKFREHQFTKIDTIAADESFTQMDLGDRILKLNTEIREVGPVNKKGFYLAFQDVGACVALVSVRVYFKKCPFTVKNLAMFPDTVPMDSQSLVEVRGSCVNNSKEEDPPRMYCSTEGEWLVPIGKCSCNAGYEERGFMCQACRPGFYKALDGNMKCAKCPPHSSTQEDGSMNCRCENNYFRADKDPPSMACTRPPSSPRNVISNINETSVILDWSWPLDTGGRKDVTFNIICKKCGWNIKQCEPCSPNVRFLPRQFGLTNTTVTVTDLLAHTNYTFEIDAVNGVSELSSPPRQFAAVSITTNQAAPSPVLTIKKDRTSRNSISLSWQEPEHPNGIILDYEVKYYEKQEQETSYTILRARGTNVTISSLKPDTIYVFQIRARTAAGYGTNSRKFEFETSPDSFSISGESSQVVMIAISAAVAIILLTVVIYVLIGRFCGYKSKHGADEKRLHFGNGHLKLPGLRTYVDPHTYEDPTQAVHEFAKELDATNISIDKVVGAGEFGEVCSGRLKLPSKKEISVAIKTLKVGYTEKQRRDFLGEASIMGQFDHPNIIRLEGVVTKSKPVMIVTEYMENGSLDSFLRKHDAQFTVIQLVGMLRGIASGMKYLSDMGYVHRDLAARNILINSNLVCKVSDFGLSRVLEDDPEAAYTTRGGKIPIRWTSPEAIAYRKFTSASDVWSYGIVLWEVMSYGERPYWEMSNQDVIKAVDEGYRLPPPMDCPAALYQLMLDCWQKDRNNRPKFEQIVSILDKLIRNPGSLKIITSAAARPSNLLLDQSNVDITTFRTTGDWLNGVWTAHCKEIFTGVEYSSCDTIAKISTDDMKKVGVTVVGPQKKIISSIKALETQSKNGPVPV
T13 sequence (P34947 whole entry): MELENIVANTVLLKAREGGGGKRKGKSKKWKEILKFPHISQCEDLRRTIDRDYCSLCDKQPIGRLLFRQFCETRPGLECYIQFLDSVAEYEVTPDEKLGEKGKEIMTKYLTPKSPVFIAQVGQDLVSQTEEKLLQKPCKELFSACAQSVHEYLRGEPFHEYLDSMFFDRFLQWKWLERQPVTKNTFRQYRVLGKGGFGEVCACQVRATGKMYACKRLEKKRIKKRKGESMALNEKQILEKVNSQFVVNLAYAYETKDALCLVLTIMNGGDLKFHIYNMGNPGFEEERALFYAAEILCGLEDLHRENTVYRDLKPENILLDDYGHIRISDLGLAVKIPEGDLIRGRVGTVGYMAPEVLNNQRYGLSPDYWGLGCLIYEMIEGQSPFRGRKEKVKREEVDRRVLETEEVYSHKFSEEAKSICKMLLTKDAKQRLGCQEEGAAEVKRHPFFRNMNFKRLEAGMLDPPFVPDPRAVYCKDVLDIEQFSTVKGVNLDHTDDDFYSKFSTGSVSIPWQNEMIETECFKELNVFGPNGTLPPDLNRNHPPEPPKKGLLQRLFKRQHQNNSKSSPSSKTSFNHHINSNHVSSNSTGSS
T7 sequence (P29317 24-976): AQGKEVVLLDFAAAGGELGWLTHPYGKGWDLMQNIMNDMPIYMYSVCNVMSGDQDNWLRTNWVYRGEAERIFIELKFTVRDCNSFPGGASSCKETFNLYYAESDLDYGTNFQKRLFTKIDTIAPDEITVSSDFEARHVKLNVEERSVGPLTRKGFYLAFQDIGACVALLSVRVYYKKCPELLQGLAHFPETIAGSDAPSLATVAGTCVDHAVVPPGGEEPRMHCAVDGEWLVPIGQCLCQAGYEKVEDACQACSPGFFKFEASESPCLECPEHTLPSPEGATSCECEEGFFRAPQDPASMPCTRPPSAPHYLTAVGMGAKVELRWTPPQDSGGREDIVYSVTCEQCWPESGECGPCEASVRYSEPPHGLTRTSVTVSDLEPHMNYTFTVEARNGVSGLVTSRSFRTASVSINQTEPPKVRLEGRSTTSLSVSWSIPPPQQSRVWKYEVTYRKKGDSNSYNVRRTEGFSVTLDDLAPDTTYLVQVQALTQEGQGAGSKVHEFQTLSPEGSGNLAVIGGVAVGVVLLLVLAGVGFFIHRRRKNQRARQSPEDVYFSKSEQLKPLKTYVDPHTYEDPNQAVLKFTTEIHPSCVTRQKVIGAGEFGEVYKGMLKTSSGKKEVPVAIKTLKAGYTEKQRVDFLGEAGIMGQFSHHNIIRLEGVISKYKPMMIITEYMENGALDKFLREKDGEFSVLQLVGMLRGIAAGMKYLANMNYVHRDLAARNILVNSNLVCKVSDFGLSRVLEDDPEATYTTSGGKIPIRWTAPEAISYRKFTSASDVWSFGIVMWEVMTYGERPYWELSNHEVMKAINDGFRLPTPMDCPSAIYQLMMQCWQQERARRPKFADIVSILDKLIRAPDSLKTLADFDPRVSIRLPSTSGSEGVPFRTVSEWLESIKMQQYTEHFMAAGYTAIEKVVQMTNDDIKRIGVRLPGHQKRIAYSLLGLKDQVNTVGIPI

SMILES: COCCN1C[C@@H](NC(=O)Nc2c(-c3ccccc3)nc3c(C)nccn23)[C@H](c2ccc(F)c(F)c2)C1 [Example 20, 1-((3S,4R)-4-(3,4-difluorophenyl)-1-(2-methoxyethyl)pyrrolidin-3-yl)-3-(8-methyl-2-phenylimidazo[1,2-a]pyrazin-3-yl)urea]
- Avg. POC (Abl2): 112.5 POC
- Avg. POC (CAMK1d): 107.5 POC
- Avg. POC (CAMK2g): 113 POC
- Avg. POC (CDK2/cyclinE): 118.5 POC
- Avg. POC (CK1delta): 93 POC
- Avg. POC (EGFR): 107.5 POC
- Avg. POC (EphA2): 107.5 POC
- Avg. POC (EphA3): 98 POC
- Avg. POC (EphA5): 123 POC
- Avg. POC (EphA7): 104.5 POC
- Avg. POC (EphB1): 85 POC
- Avg. POC (FAK): 109.5 POC
- Avg. POC (GRK5): 108 POC
- Avg. POC (HIPK3): 105.5 POC
- Avg. POC (IGF-1R Activated): 100 POC
- Avg. POC (IRAK4): 124 POC
- Avg. POC (JAK2): 117 POC
- Avg. POC (Lck): 135.5 POC
- Avg. POC (MAP3K5): 88 POC
- Avg. POC (MAP4K2): 112 POC
- Avg. POC (MAPKAP-K3): 105 POC
- Avg. POC (MKK7beta): −2 POC
- Avg. POC (MSSK1): 108.5 POC
- Avg. POC (MYLK): 110 POC
- Avg. POC (PAK4): 97.5 POC
- Avg. POC (PKAC-alpha): 114 POC
- Avg. POC (PKCbetaI): 101 POC
- Avg. POC (PKCgamma): 111 POC
- Avg. POC (PRKG1alpha): 111.5 POC
- Avg. POC (PTK6): 114 POC
- Avg. POC (Pim-3): 98 POC
- Avg. POC (Rsk1): 115 POC
- Avg. POC (SRPK1): 113.5 POC
- Avg. POC (SRPK2): 100 POC
- Avg. POC (TAK1): 97 POC
- Avg. POC (Txk): 130 POC
- Avg. POC (ULK2): 109 POC
- Avg. POC (WNK2): 120 POC
- Avg. POC (WNK3): 115.5 POC
- Avg. POC (c-RAF): 118.5 POC
- Avg. POC (p38delta): 105 POC
